# Laboratory results from patent US6143737A, “Progesterone analogs to reverse multidrug resistance” (priority 1996, dated 2000).
# Experiments:
# [1] = system: MCF-7^ADR cells and cells transfected with the MDR gene (CL 10.3); format: cell-based, human
# Experimental: (§1) While many PGP-reversing agents have been studied, the majority are maximally active in vitro at concentrations≥10 μM. It is widely acknowledged that, for many of these compounds, it is impossible to achieve this level in the sera of patients without inducing severe dose limiting toxicities (Miller, T. P. et al., J. Clin. Oncol. 9:17-24 (1991); Murren & Hait, Oncology Res. 1:1-6 (1992); Dalton, W. D. et al., J. Clin. Oncol. 7:415-424 (1989); Miller, R. L. et al., J. Clin Oncol. 6:880-888 (1988)). Our compounds were evaluated in vitro using concentrations likely to be pharmacologically relevant. […] To determine potency relative to verapamil, we compared the equieffective concentrations. […]. Oncol. 9:17-24 (1991); Dalton, W. D. et al., J. Clin. Oncol. 7:415-424 (1989)). Similar serum levels of progestagens are achieved in patients receiving standard dosing, e.g. megesterol acetate (0.7 μM) (Lundgren & Lonning, J. Steroid. Biochem. 36:105-109 (1990)).
# (§2) We then determined the relative potency for increasing [^3 H] VBL accumulation in control (parental) and resistant cells (MCF-7^ADR) and/or MDR1 transduced in comparison with progesterone and verapamil. […]. […]
# PGP-resistant cells = experiment: PGP-mediated resistance reversal (VBL cytotoxicity, continuous exposure); format: cell-based; conditions: preliminary data
# Source text: (§3) Information on drug stability in serum also may be indirectly assessed by comparing effects on [^3 H] VBL accumulation with cytotoxicity (reversing) assays using a continuous exposure. For example, Thimmaiah, K. N. et al. (J. Med. Chem. 35:3358-3364 (1992)) reported that some phenoxazine analogues increased [^3 H] VBL accumulation but were ineffective at reversing VBL cytotoxicity. […] VBL accumulation and reversing PGP-mediated resistance.
# [2] = format: in vitro ADME
# Source text: as §3
# (§4) The ability of compound 4 to reverse both [^3 H]
# MCF-7^ADR cells [3] = system: MCF-7^ADR cells
# Experimental: (§5) The growth inhibition experiments, i.e., anchorage dependent and independent assays, are designed to allow evaluation of drug interactions by isobologram analysis. Thus, they include a full definition of the dose-response curves relative to the single agents (untreated and up to 8 drug concentrations), all combinations of 5 concentrations of the modulating agent (e.g., C7 analogue) and up to 9 concentrations of the target agent. […] Briefly, cell monolayers are treated with the appropriate drugs, reversing agents and vehicle(s), the monolayers washed 3 times with growth media, gently trypsinized, and suspended in 1.5 ml growth medium containing 0.6% (w/v) agar at 41° C. […] This agar solution is placed over a solid bottom agar layer and incubated for 10 days at 37° C. Dishes are refed with 500 μl of growth medium on days 3 and 6. Colonies of 50 cells or more (~60 μm diameter) are counted using an Omnicron electronic colony counter. Statistical analyses of colony forming ability will be performed using ANOVA.
# (§6) Dose-response curves of the cytotoxic drug are obtained in the absence and presence of the chemosensitizer. The curves are corrected by dividing the observed survival values by the fractional survival to the chemosensitizer alone (where present in the combination), and IC50 values obtained by interpolation on the corrected curves. The activity of the chemosensitizer will be quantified as FS=IC50 (-)/IC50 (+), where FS=Fold Sensitization, and IC50 (-) and IC50 (+) are the cytotoxic drug IC50 s respectively in the absence and presence of the chemosensitizer.
# MDA435/LCC6^MDR1 cells = conditions: 1 μM compound 4
# Experimental: as §5, §6
# sensitive parental cells = experiment: Effect in sensitive (parental) control cells: VBL accumulation and resistance reversal; format: cell-based, human
# Source text: We then determined the relative potency for increasing [^3 H] VBL accumulation in control (parental) and resistant cells (MCF-7^ADR) and/or MDR1 transduced in comparison with progesterone and verapamil. […]. […] […].
# as §4
# CL 10.3 cells = experiment: [^3 H] VBL accumulation in MDR1-transduced CL 10.3 cells; format: cell-based, human
# Experimental: While many PGP-reversing agents have been studied, the majority are maximally active in vitro at concentrations≥10 μM. […] Our compounds were evaluated in vitro using concentrations likely to be pharmacologically relevant. […] To determine potency relative to verapamil, we compared the equieffective concentrations. […] Oncol.
# We then determined the relative potency for increasing [^3 H] VBL accumulation in control (parental) and resistant cells (MCF-7^ADR) and/or MDR1 transduced in comparison with progesterone and verapamil.
# MCF-7^ADR cells [4] = experiment: [^3 H] VBL accumulation in MCF-7^ADR cells; format: cell-based, human
# Experimental: 5:231-243 (1985)) and provide sufficient free TAM levels in the ER-positive cells.
# as §1, §2
# [5] = MCF-7^ADR and MDR-transfected cells, up to
smiles,measurement,setting,value
CC(=O)C1CCC2C3C(Sc4ccc(NC(=O)NCCc5ccccc5)cc4)CC4=CC(=O)CCC4(C)C3CCC12C (stereo not shown) [Compound 4],maximal increase in intercellular VBL relative to verapamil,[1],equivalent to that achievable with verapamil
same,potency relative to progesterone (fold more potent),[1]; [5],up to 35 fold
same,"potency relative to verapamil, equal-molar basis (ratio of ED50 s)",[1]; [5],up to 6 fold
same,potency relative to verapamil in vitro (VBL accumulation and cytotoxicity),[1]; human,≥ 6 fold
same,effectiveness among the novel C7 analogs,[1]; preliminary analyses,more effective of the novel C7 analogs
same,increasing [^3 H] VBL accumulation,[1]; preliminary data,highly potent
same,potency in increasing [^3 H] VBL accumulation relative to the lead compound (progesterone),[1]; up to,up to 35 fold
same,potency in increasing [^3 H] VBL accumulation relative to verapamil,[1]; up to,up to 7 fold
same,reversing PGP-mediated resistance,PGP-resistant cells,highly potent
same,stability in vitro,[2],stable in vitro
same,fold sensitization to VBL at VBL's IC50,"MCF-7^ADR cells [3]; 1 μM compound 4, MCF-7^ADR",up to 9 fold
same,residual VBL resistance,"MCF-7^ADR cells [3]; MCF-7^ADR, 1 μM compound 4, from an initial 32-fold",3.8 fold
same,potency relative to progesterone in increasing VBL cytotoxicity,MCF-7^ADR cells [3]; human,approximately 23 fold
same,potency relative to verapamil in increasing VBL cytotoxicity,MCF-7^ADR cells [3]; human,approximately 6 fold
same,fold sensitization to VBL at VBL's IC50,MDA435/LCC6^MDR1 cells; transduced MDA435/LLC6 cells,20 fold
same,residual VBL resistance,"MDA435/LCC6^MDR1 cells; MDA435/LCC6MDR1, from an initial 49-fold",2.4 fold
same,specificity for PGP,sensitive parental cells; PGP-resistant vs sensitive parental cells,specific for PGP
same,activity in sensitive control cell populations,sensitive parental cells; sensitive control / parental cells,not in sensitive control cell populations
same,concentration equieffective with the ED50 of verapamil for increasing intracellular VBL: fold lower than progesterone,CL 10.3 cells,30 fold
same,concentration equieffective with the ED50 of verapamil for increasing intracellular VBL: fold lower than verapamil,CL 10.3 cells,7 fold
same,concentration equieffective with the ED50 of verapamil for increasing intracellular VBL: fold lower than progesterone,MCF-7^ADR cells [4],35 fold
same,concentration equieffective with the ED50 of verapamil for increasing intracellular VBL: fold lower than verapamil,MCF-7^ADR cells [4],5 fold
